Test results as given in the supplement of paper PMC11061612.

Columns and labels:
[1] = test system: KM-H2 (Hodgkin's Lymphoma); assay: combination Emax (second highest fraction inhibited in the dose matrix, 72 h); higher = more inhibition; extreme values may be limits of the assay
Method in brief: (§1)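 Cell lines in DMEM/F12 or RPMI with 10% FBS were plated in 1536-well plates, held 24 hours at 37°C, 5% CO2, then given two-drug dose matrices for 72 hours (DMSO typically 0.2%). Viability was read by CellTiter-Glo 2.0 luminescence and scaled as inhibition from 0 (vehicle wells) to 1 (blank wells). Combination Emax is the second-highest inhibition in the matrix; Bliss excess is observed combination effect minus expected EA + EB − EA·EB, EA and EB being single-agent effects.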

[2] = test system: SUIT-2 (Pancreatic Carcinoma); assay: as above
Method in brief: as §1

[3] = test system: SW780 (Bladder Carcinoma); assay: as above
Method in brief: as §1

[4] = test system: TGBC24TKB (Biliary Tract Carcinoma); assay: as above
Method in brief: as §1

[5] = test system: SW756 (Cervical Carcinoma); assay: as above
Method in brief: as §1

RH-1 (Ewing's Sarcoma) = assay: as above
Method in brief: as §1

[6] = test system: NCI-H211 (Small Cell Lung Carcinoma); assay: Bliss excess, mean over the matrix (fraction); higher = more synergy
Method in brief: as §1

[7] = test system: U-266 (Plasma Cell Myeloma); assay: as above
Method in brief: as §1

[8] = test system: IHH-4 (Thyroid Gland Carcinoma); assay: as above
Method in brief: as §1

[9] = test system: COR-L95 (Small Cell Lung Carcinoma); assay: as above
Method in brief: as §1

[10] = test system: HT-29 (Colorectal Carcinoma); assay: as above
Method in brief: as §1

[11] = test system: MDA-MB-157 (Breast Carcinoma); assay: as above
Method in brief: as §1

[12] = test system: SW1783 (Low Grade Glioma); assay: as above
Method in brief: as §1

[13] = test system: SW1088 (Low Grade Glioma); assay: as above
Method in brief: as §1

[14] = test system: DOV13 (Ovarian Carcinoma); assay: as above
Method in brief: as §1

[15] = test system: LS-513 (Colorectal Carcinoma); assay: as above
Method in brief: as §1

[16] = test system: KARPAS-1106P (B-Cell Non-Hodgkin's Lymphoma); assay: as above
Method in brief: as §1

NCI-H2595 (Mesothelioma) = assay: as above
Method in brief: as §1

[17] = test system: MFH-ino (Other Solid Carcinomas); assay: as above
Method in brief: as §1

SN12C (Kidney Carcinoma) = assay: as above
Method in brief: as §1
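Throughout, for Bliss excess, mean over the matrix: after 72 h of two-drug dosing.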

Row | Compound | combination Emax [1] | combination Emax [2] | combination Emax [3] | combination Emax [4] | combination Emax [5] | combination Emax (RH-1 (Ewing's Sarcoma)) | Bliss excess [6] | Bliss excess [7] | Bliss excess [8] | Bliss excess [9] | Bliss excess [10] | Bliss excess [11] | Bliss excess [12] | Bliss excess [13] | Bliss excess [14] | Bliss excess [15] | Bliss excess [16] | Bliss excess (NCI-H2595 (Mesothelioma)) | Bliss excess [17] | Bliss excess (SN12C (Kidney Carcinoma))
1 | CS(=O)(=O)CCNCc1ccc(-c2ccc3ncnc(Nc4ccc(OCc5cccc(F)c5)c(Cl)c4)c3c2)o1 [Lapatinib] + NC1(c2ccc(-c3nc4ccn5c(=O)[nH]nc5c4cc3-c3ccccc3)cc2)CCC1 [MK-2206] (first compound max 10 µM, 7x7, partner max 10 µM) | 0.939 | 0.361 | 0.737 | 0.957 | 0.175 | 0.936 | 0.058 | -0.016 | 0.0087 | 0.0048 | 0.0084 | -0.0057 | -0.0201 | 0.0163 | 0.0362 | -0.0396 | -0.0022 | -0.0559 | -0.102 | -0.0236
2 | CN(CCO)CC[C@H](CSc1ccccc1)Nc1ccc(S(=O)(=O)NC(=O)c2ccc(N3CCC([C@@H](O)c4ccccc4-c4ccc(Cl)cc4)CC3)cc2)cc1S(=O)(=O)C(F)(F)F [AZD4320] + Nc1ccn([C@@H]2O[C@H](CO)[C@@H](O)C2(F)F)c(=O)n1 [Gemcitabine] (first compound max 1 µM, 7x7, partner max 0.3 µM) | – | – | – | – | – | – | 0.0135 | 0.0421 | 0.0132 | 0.0634 | 0.0191 | -0.0349 | 0.0546 | -0.0628 | -0.0366 | -0.0318 | -0.0009 | -0.0542 | -0.0252 | 0.0195
3 | C[C@@H](Nc1cc(F)cc(F)c1)c1cc(C(=O)N(C)C)cc2c(=O)cc(N3CCOCC3)oc12 [AZD8186] + C1CN(CCC1(C(=O)N[C@@H](CCO)C2=CC=C(C=C2)Cl)N)C3=NC=NC4=C3C=CN4 [AZD5363] (first compound max 10 µM, 7x7, partner max 10 µM) | – | – | – | – | – | – | -0.0006 | -0.0427 | 0.0233 | -0.0781 | -0.0172 | 0.0227 | -0.0125 | -0.0474 | 0.026 | -0.0681 | -0.0234 | -0.0537 | -0.0258 | -0.0471
4 | N#Cc1cnc(Nc2cc(NC[C@H]3CNCCO3)c(C(F)(F)F)cn2)cn1 [SRA737] + C=CCn1c(=O)c2cnc(Nc3ccc(N4CCN(C)CC4)cc3)nc2n1-c1cccc(C(C)(C)O)n1 [AZD1775] (first compound max 10 µM, partner max 1 µM) | – | – | – | – | – | – | 0.169 | 0.0474 | 0.14 | 0.0077 | 0.0394 | 0.119 | 0.0153 | 0.0681 | 0.132 | 0.0476 | 0.0143 | -0.0688 | -0.013 | -0.0184
5 | CN(CCO)CC[C@H](CSc1ccccc1)Nc1ccc(S(=O)(=O)NC(=O)c2ccc(N3CCC([C@@H](O)c4ccccc4-c4ccc(Cl)cc4)CC3)cc2)cc1S(=O)(=O)C(F)(F)F [AZD4320] + CS(=O)(=O)CCNCc1ccc(-c2ccc3ncnc(Nc4ccc(OCc5cccc(F)c5)c(Cl)c4)c3c2)o1 [Lapatinib] (first compound max 1 µM, 7x7, partner max 10 µM) | – | – | – | – | – | – | 0.0409 | -0.052 | -0.0096 | 0.0386 | -0.0113 | 0.019 | 0.0765 | -0.0544 | 0.0488 | 0.0667 | -0.0212 | 0.0034 | -0.0732 | -0.0385
